According to US20240000749A1, “SOLID FORMULATION” (Janssen Pharmaceuticals, Inc., priority 2020, published 2024):
Converted amounts (≈) assume the structure as drawn. Like-named read-outs stand apart in the source and are kept apart here.

Legend:
Assay type in all cases: physicochemical
[1] = Equilibrium solubility determined by UPLC
[2] = Stability of API, SD2 powder and 10 mg SD2 tablets in HDPE bottles; design: key to Appearance: “T1”: white powder; “T2”: white or off white round tablet; settings: Table 8
Description: Stability of the API, SD2 as well as the tablet (10 mg strength) comprising SD2 was tested by placing the tablets in HDPE bottles under stressed conditions as described in column 2 of Table 7.

[3] = In vitro 2-phase (SGF/FaSSIF) miniaturized dissolution of solid dispersion films; settings: SGF-FaSSIF, 37° C.
Description: In vitro, 2-phase (SGF/FaSSIF) miniaturized dissolution was performed, where the amount of dissolved API was monitored as a function of time. Before starting the dissolution assay, the films were stored at room temperature, for one day for the first screen and for 3 days for the second screen. By doing so, most of the residual solvent was evaporated. Actual dissolution experiments were performed in 96 1 mL glass vials using the Hamilton STAR plus liquid handling platform for both sampling and sample preparation. Before addition to the films, the media was preheated to 37° C. 300 μL of preheated SGF (37° C., pH 1.3) was then added to the solid dispersions. After 15 minutes of incubation in SGF, 600 μL of preheated concentrated FaSSIF (37° C., pH 10.5) was added to the samples. The addition of this concentrated FaSSIF to SGF results in a medium with a similar composition to the typical FaSSIF medium used in 1-phase dissolution studies. At predetermined time intervals (11, 24, 34, 49, 79, 139 minutes), aliquots were withdrawn from the dissolution media and filtered through a 0.45 μm GHP membrane filter. Subsequently, the filtered solutions were quantitatively diluted with N-methyl pyrrolidone (NMP) to prevent possible precipitation. The amount of dissolved API was determined by UPLC/UV-Vis analysis. Experiments were performed in duplicate for each formulation per screen. […]

[4] = Approximate solubility screening in organic solvents at ambient temperature; settings: organic solvent or mixture, thermodynamic from solid, read-out: S (solubility)
Excerpt: To screen appropriate solvent for spray drying, approximate solubility of starting material was estimated in different organic solvents at ambient temperature.

[5] = Stability of API, SD1 powder and 10 mg SD1 tablets in HDPE bottles; design: key to Appearance: “T1”: white powder; “T2”: white or off white round tablet; settings: Table 6
Description: Stability of the API, SD1 powder as well as the tablets (10 mg strength) comprising SD1 was tested by placing the tablets in High-density polyethylene (HDPE) bottles under stressed conditions as described in column 2 of Table 6.

- solubility thermodynamic ([1]; MeOH/dichloromethane (1/1, organic solvent or mixture, thermodynamic from solid), MeOH/dichloromethane (DCM) (1/1, v/v)): 317 mg/mL (≈ 544 mM)
- solubility thermodynamic ([1]; organic solvent or mixture, thermodynamic from solid, MeOH): 42 mg/mL (≈ 72 mM)
- Appearance ([2]; 40° C./75% RH (closed), 1 M): T1
- Purity (%) ([2]; 40° C./75% RH (closed), 1 M): 98.96%
- Total impurity (%) ([2]; 40° C./75% RH (closed), 1 M): 1.04%
- Appearance ([2]; 40° C./75% RH (closed), 2 M): T1
- Purity (%) ([2]; 40° C./75% RH (closed), 2 M): 98.94%
- Total impurity (%) ([2]; 40° C./75% RH (closed), 2 M): 1.05%
- Appearance ([2]; 40° C./75% RH (closed), 2 W): T1
- Purity (%) ([2]; 40° C./75% RH (closed), 2 W): 98.95%
- Total impurity (%) ([2]; 40° C./75% RH (closed), 2 W): 1.05%
- Appearance ([2]; 40° C./75% RH (closed), 3 M): T1
- Purity (%) ([2]; 40° C./75% RH (closed), 3 M): 98.95%
- Total impurity (%) ([2]; 40° C./75% RH (closed), 3 M): 1.05%
- Appearance ([2]; 40° C./75% RH (open), 1 M): T1
- Purity (%) ([2]; 40° C./75% RH (open), 1 M): 98.94%
- Total impurity (%) ([2]; 40° C./75% RH (open), 1 M): 1.04%
- Appearance ([2]; 40° C./75% RH (open), 2 M): T1
- Purity (%) ([2]; 40° C./75% RH (open), 2 M): 98.96%
- Total impurity (%) ([2]; 40° C./75% RH (open), 2 M): 1.04%
- Appearance ([2]; 40° C./75% RH (open), 2 W): T1
- Purity (%) ([2]; 40° C./75% RH (open), 2 W): 98.95%
- Total impurity (%) ([2]; 40° C./75% RH (open), 2 W): 1.06%
- Appearance ([2]; 40° C./75% RH (open), 3 M): T1
- Purity (%) ([2]; 40° C./75% RH (open), 3 M): 98.96%
- Total impurity (%) ([2]; 40° C./75% RH (open), 3 M): 1.05%
- final release of the total amount of API present in the films ([3]; first screen): approximately 9%
- final release of the total amount of API present in the films ([3]; second screen): approximately 9%
- solubility ([4]; Acetone/EtOH (1/1, v/v)): > 100 mg/mL
- solubility ([4]; Acetone/EtOH (2/1, v/v)): > 100 mg/mL
- solubility ([4]; Acetone/H2O (9/1, v/v)): > 100 mg/mL
- solubility ([4]; Acetone/MeOH (2/1, v/v)): > 100 mg/mL
- solubility ([4]; EtOH/H2O (9/1, v/v), HPMC E5 added into co-solvent system directly): 10 to 12.5 mg/mL (≈ 17.2 to 21.4 mM)
- solubility ([4]; MeOH): 42 mg/mL (≈ 72 mM)
- solubility ([4]; MeOH/DCM (1/1, v/v)): > 100 mg/mL
- Appearance ([5]; 40° C./75% RH (closed), 1 M): T1
- Purity (%) ([5]; 40° C./75% RH (closed), 1 M): 98.96%
- Total impurity (%) ([5]; 40° C./75% RH (closed), 1 M): 1.04%
- Appearance ([5]; 40° C./75% RH (closed), 2 M): T1
- Purity (%) ([5]; 40° C./75% RH (closed), 2 M): 98.94%
- Total impurity (%) ([5]; 40° C./75% RH (closed), 2 M): 1.06%
- Appearance ([5]; 40° C./75% RH (closed), 2 W): T1
- Purity (%) ([5]; 40° C./75% RH (closed), 2 W): 98.95%
- Total impurity (%) ([5]; 40° C./75% RH (closed), 2 W): 1.05%
- Appearance ([5]; 40° C./75% RH (closed), 3 M): T1
- Purity (%) ([5]; 40° C./75% RH (closed), 3 M): 98.95%
- Total impurity (%) ([5]; 40° C./75% RH (closed), 3 M): 1.05%
- Appearance ([5]; 40° C./75% RH (open), 1 M): T1
- Purity (%) ([5]; 40° C./75% RH (open), 1 M): 98.94%
- Total impurity (%) ([5]; 40° C./75% RH (open), 1 M): 1.06%
- Appearance ([5]; 40° C./75% RH (open), 2 M): T1
- Purity (%) ([5]; 40° C./75% RH (open), 2 M): 98.96%
- Total impurity (%) ([5]; 40° C./75% RH (open), 2 M): 1.04%
- Appearance ([5]; 40° C./75% RH (open), 2 W): T1
- Purity (%) ([5]; 40° C./75% RH (open), 2 W): 98.95%
- Total impurity (%) ([5]; 40° C./75% RH (open), 2 W): 1.05%
- Appearance ([5]; 40° C./75% RH (open), 3 M): T1
- Purity (%) ([5]; 40° C./75% RH (open), 3 M): 98.96%
- Total impurity (%) ([5]; 40° C./75% RH (open), 3 M): 1.04%
SMILES: COc1cc(NC(C(=O)c2c[nH]c3ccc(OC(F)(F)F)cc23)c2ccc(Cl)cc2OC)cc(S(C)(=O)=O)c1 (centres unmarked) [API]
